# Assays:
# [1] = test system: Lolium spp. resistant to HRAC group A; test: greenhouse experiment, post-emergence treatment of resistant ryegrass biotypes (HRAC group A resistant); format: in vivo; details: post-emergence (PO, BBCH 11), about 3 weeks after application, dose g of AS/ha: aclonifen 225, pendimethalin 300, picolinafen 25, mixture 225 + 300 + 25, pinoxaden + cloquintocet-mexyl 60 + 15
# Method: (§1) In the standard design of the test, seeds of various broad-leaved weed and weed grass biotypes (origins) were sown in a 8-13 cm diameter pot filled with natural soil of a standard field soil (loamy silt; non-sterile) and covered with a covering soil layer of about 1 cm. The pots were then cultivated in a greenhouse (12-16 h light, temperature day 20-22° C., night 15-18° C.) until the time of application. The pots were treated on a laboratory track sprayer with spray liquors comprising the compositions according to the invention, mixtures of the prior art or components used individually. Application of the active compounds or active compound combinations formulated as WG, WP, EC or otherwise was carried out at the appropriate growth stages of the plants. The amount of water used for spray application was 100-600 l/ha. After the treatment, the plants were returned to the greenhouses.
# (§2) About 3 weeks after the application, the soil action or/and foliar action was assessed visually according to a scale of 0-100% in comparison to an untreated comparative group: 0%=no noticeable effect compared to the untreated comparative group; 100%=full effect compared to the untreated comparative group.
# (§3) 2. Post-emergence action against weeds: seeds of various broad-leaved weed and weed grass biotypes (origins) were sown in a 8-13 cm diameter pot filled with natural soil of a standard field soil (loamy silt; non-sterile) and covered with a covering soil layer of about 1 cm. The pots were then cultivated in a greenhouse (12-16 h of light, temperature day 20-22° C., night 15-18° C.) until the time of application. […]
# (§4) Insofar as herbicidal effects of the compositions according to the invention compared to mixtures of the prior art or compared to components applied individually against economically important mono- and dicotyledonous harmful plants were the center of attention, the synergistic herbicidal activities were calculated using Colby's formula (cf. S. R. Colby; Weeds 15 (1967), 20-22): E^C=(A+B+C)−(A×B+A×C+B×C)/100+(A×B×C)/10000 where: […]
# [2] = test system: Lolium spp. resistant to HRAC group B; test: greenhouse experiment, post-emergence treatment of resistant ryegrass biotypes (HRAC group B resistant); format: in vivo; details: post-emergence (PO, BBCH 11), about 3 weeks after application, dose g of AS/ha: aclonifen 225, pendimethalin 300, picolinafen 25, mixture 225 + 300 + 25, mesosulfuron + iodosulfuron + mefenpyr 15 + 3 + 45
# Method: as §1, §2, §3, §4
SMILES,"herbicidal effect, visual assessment on a scale of 0-100% versus untreated comparative group [1] [%]","herbicidal effect, visual assessment on a scale of 0-100% versus untreated comparative group [2] [%]"
"Nc1c([N+](=O)[O-])ccc(Oc2ccccc2)c1Cl [(A) aclonifen, 2-chloro-6-nitro-3-phenoxybenzenamine]",25,50
"CCC(CC)Nc1c([N+](=O)[O-])cc(C)c(C)c1[N+](=O)[O-] [(B) pendimethalin, N-(1-ethylpropyl)-3,4-dimethyl-2,6-dinitrobenzenamine]",5,0
"O=C(Nc1ccc(F)cc1)c1cccc(Oc2cccc(C(F)(F)F)c2)n1 [(C) picolinafen, N-(4-fluorophenyl)-6-[3-(trifluoromethyl)phenoxy]-2-pyridinecarboxamide]",10,5
